Results: article PMC8843100, “Development of newly synthesised quinazolinone-based CDK2 inhibitors with potent efficacy against melanoma” (Journal of Enzyme Inhibition and Medicinal Chemistry, 2022)

What was measured:
Assay in all cases: NCI-60 single dose screen, sulforhodamine B
Type in all cases: cell-based, human
SF-268 = settings: CNS cancer SF-268; single dose 10^−5 M
Protocol: (§1) In this research, all of the newly synthesised quinazolinones were subjected to in vitro anticancer screening by the National Cancer Institute (USA) against 60 different human cell lines including leukaemia, non-small cell lung cancer, colon cancer, CNS cancer, melanoma, ovarian cancer, renal cancer, prostate cancer, and breast cancer. The tested compounds were evaluated at a single dose (10^−5 M). […] Regarding the benzenesulfonamide counterparts, the introduction of an electron-withdrawing group on the benzenesulfonamide moiety increased the inhibitory activity on the glioblastoma cell line SNB-75 as depicted by the chloro derivative 5c (GI% = 63.09) which was higher than that of the unsubstituted derivative 5a (GI% = 40.06) and the methyl derivative 5b (GI% = 33.03).
(§2) 1. Cytotoxicity screening against a panel of 60 human tumor cell lines
(§3) All the compounds were selected for NCI-60 Human Tumor Cell Lines Screen by the Developmental Therapeutics Program (DTP) at the National Cancer Institute (NCI), Maryland, USA. The operation of this screen utilizes 60 different human tumor cell lines, representing leukemia, non-small-cell lung cancer, colon cancer, CNS cancer, melanoma, ovarian cancer, renal cancer, prostate cancer and breas t cancer.
(§4) The compounds were supplied as dry powder and a single concentration is tested in all 60 cell lines at a single dose of 10 µM solution in dimethyl sulfoxide (DMSO) using Sulforhodamine B assay. Briefly, cells are seeded in 96 well plates at an appropriate density and incubated for 1 day. After 1 day, some of the plates are processed to determine the density time zero. To the remaining plates, compounds are added at 10 µM concentration. Plates are incubated a further 2 days, then fixed and staine d with sulphorhodamine B. Growth inhibition is calculated relative to cells without drug treatment and the time zero control. The use of a time zero control allows the determination of cell kill as well as net growth inhibition. […]

A549/ATCC = settings: Non-small cell lung cancer A549/ATCC; single dose 10^−5 M
Protocol: as §1, §2, §3, §4

HCT-116 = settings: Colon cancer HCT-116; single dose 10^−5 M
Protocol: as §1, §2, §3, §4

OVCAR-4 = settings: Ovarian cancer OVCAR-4; single dose 10^−5 M
Protocol: as §1, §2, §3, §4

SNB-19 = settings: CNS cancer SNB-19; single dose 10^−5 M
Protocol: as §1, §2, §3, §4

HOP-92 = settings: Non-small cell lung cancer HOP-92; single dose 10^−5 M
Protocol: as §1, §2, §3, §4

NCI-H322M = settings: Non-small cell lung cancer NCI-H322M; single dose 10^−5 M
Protocol: as §1, §2, §3, §4

CCRF-CEM = settings: Leukaemia CCRF-CEM; single dose 10^−5 M
Protocol: as §1, §2, §3, §4

HT29 = settings: Colon cancer HT29; single dose 10^−5 M
Protocol: as §1, §2, §3, §4

SK-MEL-2 = settings: Melanoma SK-MEL-2; single dose 10^−5 M
Protocol: as §1, §2, §3, §4

NCI-H226 = settings: Non-small cell lung cancer NCI-H226; single dose 10^−5 M
Protocol: as §1, §2, §3, §4

SF-539 = settings: CNS cancer SF-539; single dose 10^−5 M
Protocol: as §1, §2, §3, §4

MDA-MB-435 = settings: Melanoma MDA-MB-435; single dose 10^−5 M
Protocol: as §1, §2, §3, §4

EKVX = settings: Non-small cell lung cancer EKVX; single dose 10^−5 M
Protocol: as §1, §2, §3, §4

A498 = settings: Renal cancer A498; single dose 10^−5 M
Protocol: as §1, §2, §3, §4

UO-31 = settings: Renal cancer UO-31; single dose 10^−5 M
Protocol: as §1, §2, §3, §4

OVCAR-5 = settings: Ovarian cancer OVCAR-5; single dose 10^−5 M
Protocol: as §1, §2, §3, §4

PC-3 = settings: Prostate cancer PC-3; single dose 10^−5 M
Protocol: as §1, §2, §3, §4

DU-145 = settings: Prostate cancer DU-145; single dose 10^−5 M
Protocol: as §1, §2, §3, §4

HOP-62 = settings: Non-small cell lung cancer HOP-62; single dose 10^−5 M
Protocol: as §1, §2, §3, §4

SW-620 = settings: Colon cancer SW-620; single dose 10^−5 M
Protocol: as §1, §2, §3, §4

HCC-2998 = settings: Colon cancer HCC-2998; single dose 10^−5 M
Protocol: as §1, §2, §3, §4

TK-10 = settings: Renal cancer TK-10; single dose 10^−5 M
Protocol: as §1, §2, §3, §4

SK-MEL-28 = settings: Melanoma SK-MEL-28; single dose 10^−5 M
Protocol: as §1, §2, §3, §4

M14 = settings: Melanoma M14; single dose 10^−5 M
Protocol: as §1, §2, §3, §4

K-562 = settings: Leukaemia K-562; single dose 10^−5 M
Protocol: as §1, §2, §3, §4

KM12 = settings: Colon cancer KM12; single dose 10^−5 M
Protocol: as §1, §2, §3, §4

T-47D = settings: Breast cancer T-47D; single dose 10^−5 M
Protocol: as §1, §2, §3, §4

LOX IMVI = settings: Melanoma LOX IMVI; single dose 10^−5 M
Protocol: as §1, §2, §3, §4

SK-MEL-5 = settings: Melanoma SK-MEL-5; single dose 10^−5 M
Protocol: as §1, §2, §3, §4

786-0 = settings: Renal cancer 786-0; single dose 10^−5 M
Protocol: as §1, §2, §3, §4

NCI-H23 = settings: Non-small cell lung cancer NCI-H23; single dose 10^−5 M
Protocol: as §1, §2, §3, §4

| Compound | GI% at 10^−5 M (SF-268) | GI% at 10^−5 M (A549/ATCC) | GI% at 10^−5 M (HCT-116) | GI% at 10^−5 M (OVCAR-4) | GI% at 10^−5 M (SNB-19) | GI% at 10^−5 M (NCI-H322M) | GI% at 10^−5 M (CCRF-CEM) | GI% at 10^−5 M (HT29) | GI% at 10^−5 M (SK-MEL-2) | GI% at 10^−5 M (NCI-H226) | GI% at 10^−5 M (SF-539) | GI% at 10^−5 M (MDA-MB-435) | GI% at 10^−5 M (EKVX) | GI% at 10^−5 M (A498) | GI% at 10^−5 M (OVCAR-5) | GI% at 10^−5 M (PC-3) | GI% at 10^−5 M (DU-145) | GI% at 10^−5 M (HOP-62) | GI% at 10^−5 M (SW-620) | GI% at 10^−5 M (HCC-2998) | further results |
| --- | --- | --- | --- | --- | --- | --- | --- | --- | --- | --- | --- | --- | --- | --- | --- | --- | --- | --- | --- | --- | --- |
| O=C(CNn1c(COc2ccccc2)nc2ccccc2c1=O)Nc1ccccc1 [Compound 4a, 2-((4-oxo-2-(phenoxymethyl)quinazolin-3(4H)-yl)amino)-N-phenylacetamide] | – (– means GI < 10%) | – (– means GI < 10%) | – (– means GI < 10%) | – (– means GI < 10%) | – (– means GI < 10%) | – (– means GI < 10%) | – (– means GI < 10%) | – (– means GI < 10%) | – (– means GI < 10%) | – (– means GI < 10%) | – (– means GI < 10%) | – (– means GI < 10%) | 14.38% | – (– means GI < 10%) | – (– means GI < 10%) | 10.95% | – (– means GI < 10%) | 13.59% | – (– means GI < 10%) | – (– means GI < 10%) | GI% at 10^−5 M (HOP-92): 15.94%; GI% at 10^−5 M (UO-31): 21.57%; GI% at 10^−5 M (TK-10): – (– means GI < 10%); GI% at 10^−5 M (SK-MEL-28): – (– means GI < 10%); GI% at 10^−5 M (M14): – (– means GI < 10%); GI% at 10^−5 M (K-562): – (– means GI < 10%); GI% at 10^−5 M (KM12): – (– means GI < 10%); GI% at 10^−5 M (T-47D): – (– means GI < 10%); GI% at 10^−5 M (LOX IMVI): – (– means GI < 10%); GI% at 10^−5 M (SK-MEL-5): – (– means GI < 10%); GI% at 10^−5 M (786-0): – (– means GI < 10%); GI% at 10^−5 M (NCI-H23): 16.55% |
| COc1ccc(NC(=O)CNn2c(COc3ccccc3)nc3ccccc3c2=O)cc1 [Compound 4b, N-(4-methoxyphenyl)-2-((4-oxo-2-(phenoxymethyl)quinazolin-3(4H)-yl)amino)acetamide] | – (– means GI < 10%) | – (– means GI < 10%) | – (– means GI < 10%) | – (– means GI < 10%) | – (– means GI < 10%) | – (– means GI < 10%) | – (– means GI < 10%) | – (– means GI < 10%) | – (– means GI < 10%) | – (– means GI < 10%) | – (– means GI < 10%) | – (– means GI < 10%) | 10.17% | 34.65% | – (– means GI < 10%) | 9.76% | – (– means GI < 10%) | 12.71% | – (– means GI < 10%) | – (– means GI < 10%) | GI% at 10^−5 M (HOP-92): 16.34%; GI% at 10^−5 M (UO-31): 15.77%; GI% at 10^−5 M (TK-10): – (– means GI < 10%); GI% at 10^−5 M (SK-MEL-28): – (– means GI < 10%); GI% at 10^−5 M (M14): – (– means GI < 10%); GI% at 10^−5 M (K-562): – (– means GI < 10%); GI% at 10^−5 M (KM12): – (– means GI < 10%); GI% at 10^−5 M (T-47D): – (– means GI < 10%); GI% at 10^−5 M (LOX IMVI): – (– means GI < 10%); GI% at 10^−5 M (SK-MEL-5): – (– means GI < 10%); GI% at 10^−5 M (786-0): – (– means GI < 10%); GI% at 10^−5 M (NCI-H23): – (– means GI < 10%) |
| O=C(CNn1c(COc2ccccc2)nc2ccccc2c1=O)Nc1ccc(Cl)cc1 [Compound 4c, N-(4-chlorophenyl)-2-((4-oxo-2-(phenoxymethyl)quinazolin-3(4H)-yl)amino)acetamide] | – (– means GI < 10%) | – (– means GI < 10%) | – (– means GI < 10%) | 11.8% | – (– means GI < 10%) | – (– means GI < 10%) | – (– means GI < 10%) | – (– means GI < 10%) | – (– means GI < 10%) | 11.13% | – (– means GI < 10%) | – (– means GI < 10%) | 19.01% | 16.35% | – (– means GI < 10%) | 15.9% | – (– means GI < 10%) | 12.12% | – (– means GI < 10%) | – (– means GI < 10%) | GI% at 10^−5 M (HOP-92): 29.33%; GI% at 10^−5 M (TK-10): – (– means GI < 10%); GI% at 10^−5 M (SK-MEL-28): – (– means GI < 10%); GI% at 10^−5 M (M14): – (– means GI < 10%); GI% at 10^−5 M (K-562): 10.43%; GI% at 10^−5 M (KM12): – (– means GI < 10%); GI% at 10^−5 M (T-47D): 29.33%; GI% at 10^−5 M (LOX IMVI): – (– means GI < 10%); GI% at 10^−5 M (SK-MEL-5): – (– means GI < 10%); GI% at 10^−5 M (786-0): – (– means GI < 10%); GI% at 10^−5 M (NCI-H23): – (– means GI < 10%) |
| O=c1c2ccccc2nc(COc2ccccc2)n1NS(=O)(=O)c1ccc(Cl)cc1 [Compound 5c, 4-chloro-N-(4-oxo-2-(phenoxymethyl)quinazolin-3(4H)-yl)benzenesulfonamide] | 11.40% | 14.05% | 16.40% | – (– means GI < 10%) | 20.21% | 17.13% | – (– means GI < 10%) | 20.01% | 25.29% | 17.00% | 13.14% | 94.53% | 25.19% | 36.68% | – (– means GI < 10%) | 17.26% | – (– means GI < 10%) | 25.00% | 30.94% | 22.36% | GI% at 10^−5 M (UO-31): 37.25%; GI% at 10^−5 M (TK-10): – (– means GI < 10%); GI% at 10^−5 M (SK-MEL-28): 12.91%; GI% at 10^−5 M (M14): 25.84%; GI% at 10^−5 M (K-562): 52.75%; GI% at 10^−5 M (KM12): 44.77%; GI% at 10^−5 M (T-47D): 25.18%; GI% at 10^−5 M (LOX IMVI): 16.40%; GI% at 10^−5 M (SK-MEL-5): – (– means GI < 10%); GI% at 10^−5 M (786-0): – (– means GI < 10%); GI% at 10^−5 M (NCI-H23): 17.19% |
